Laboratory results from patent US20200277301A1 (ALFASIGMA S.P.A., priority 2005, published 2020).

Key:
in vivo = assay: in vivo; set-up: species or system Beagle female dogs; details: female, Beagle, dog, po, 100 mg/kg
Experimental: Eight pure-bred Beagle females dogs having 20 weeks of age and weighing between 5.0 and 7.5 kg have been divided into two groups of four.
Each sample has been transferred into a tube containing heparin as anticoagulant and has been centrifuged; the plasma has been divided into two aliquots, each of 500 μl, and has been frozen at −20° C.
Tmax=time at which the Cmax is reached;
AUC=area under the concentration-time curve calculated through the linear trapezoidal rule.

[1] = Hygroscopicity of the polymorphous forms; assay type: physicochemical; details: absorb water in a reversible way under suitable pressure and ambient humidity
From the text: Both the forms δ and ε of the rifaximin are hygroscopic, they absorb water in a reversible way during the time in the presence of suitable conditions of pressure and humidity in the ambient and are susceptible of transformation to other forms.

AUC0-24 Mean (in vivo) [ng·h/mL]	Cmax Mean (in vivo) [ng/mL]	Tmax Mean (in vivo) [h]	Cmax (in vivo; Cmax) [ng/mL]	hygroscopicity (in words) [1]	Tmax (in vivo) [h]	SMILES
801	308.31	2	308	hygroscopic		CO[C@H]1/C=C/O[C@@]2(C)Oc3c(C)c(O)c4c(O)c(c5c(nc6cc(C)ccn65)c4c3C2=O)NC(=O)/C(C)=C\C=C\[C@H](C)[C@H](O)[C@@H](C)[C@@H](O)[C@@H](C)[C@H](OC(C)=O)[C@@H]1C [Polymorph δ, rifaximin]
42	6.86			hygroscopic	4	CO[C@H]1/C=C/O[C@@]2(C)Oc3c(C)c(O)c4c(O)c(c5c(nc6cc(C)ccn65)c4c3C2=O)NC(=O)/C(C)=C\C=C\[C@H](C)[C@H](O)[C@@H](C)[C@@H](O)[C@@H](C)[C@H](OC(C)=O)[C@@H]1C [Polymorph ε, rifaximin]
